Series [1] concerns CQ-resistant Pf Dd2 strain. The series can be described thus: In vitro antiplasmodial activity, SYBR green I fluorescence, Dd2 strain. Type of series: cell-based, Plasmodium falciparum. The settings on record: for activity against the Dd2 strain: aminoquinolines without the arylvinyl group; for resistance index (RI): RI = Dd2 EC50/3D7 EC50; for EC50: read-out: EC50 against the Dd2 strain, CQ-resistant Pf Dd2, 72 h incubation.

The subject of series [2] is P. berghei ANKA 676m1cl1. The experiment in a line: Assessment of the curative property. Type of series: in vivo, BALB/c female mice.
The test system of series [3] is P. berghei ANKA strain expressing luciferase. The experiment in a line: In vivo antimalarial activity: elimination of existing infection. The arrangement: species or system Swiss-Webster female mice. Conditions: 25 mg/kg daily p.o., monophosphate salts, treatment from 48 h post infection.
The subject of series [4] is malaria infection. The settings on record: 30 mg/kg ref 61; cited from earlier work.
In series [5] the test system is β-hematin crystal formation. The series can be described thus: β-Hematin formation inhibition. Type of series: biochemical. The settings on record: 100 μM hemin, 16 h, 37 °C, highest concentration tested 200 μM.
The subject of series [6] is synchronized P. falciparum Dd2 cultures. The experiment in a line: Stage-specific action. Conditions: for stage-specific action on cell cycle progression: 5 × EC50 (DHA 50 nM, atovaquone 6.6 nM) added at 6, 18, 30, 42 HPI. Type of series: cell-based, Plasmodium falciparum.
The test system of series [7] is P. falciparum Dd2 cultures. The experiment in a line: Transmission electron microscopy of treated parasites. The class given is cell-based, Plasmodium falciparum. Conditions: 5 × EC50 for 1.5, 3, 6 or 12 h.
Series [8] deals with HepG2 cells. The series can be described thus: In vitro cytotoxicity assay. Type of series: cell-based, human. The settings on record: for selectivity index (SI): SI = HepG2 EC50/Dd2 EC50.
For series [9] the following is noted: mouse liver microsomes, 15, 30 and 60 min, tentative assignment. On the technique in general: Liver microsomes are vesicles of endoplasmic reticulum, rich in cytochrome P450 enzymes.
Series [10] relates to CQ-sensitive 3D7 strain. The series can be described thus: In vitro antiplasmodial activity, SYBR green I fluorescence, 3D7 strain. The class given is cell-based, Plasmodium falciparum.

Several values for one entry are separate records, joined by “and”; a condition that tells them apart may be missing. Identical values can stand only once. Entries after “also recorded” stand apart in the source; their conditions may differ.

Data on 26 molecules can be found in paper PMC7605213 (Journal of medicinal chemistry, 2020).

As for `COc1ccc2nc(C)cc(NCCN(C)C)c2c1` [6a, N^1-(6-Methoxy-2-methylquinolin-4-yl)-N^2,N^2-dimethylethane-1,2-diamine], in series [1], the “activity against the Dd2 strain” value is “inactive”. The same measure, in the same setting: the value for `Cc1cc(NCCN(C)C)c2cc(Cl)ccc2n1` [6c, N^1-(6-Chloro-2-methylquinolin-4-yl)-N^2,N^2-dimethylethane-1,2-diamine] was “inactive”; that for `Cc1cc(NCCCCN(C)C)c2cc(Cl)ccc2n1` [6e, N^1-(6-Chloro-2-methylquinolin-4-yl)-N^4,N^4-dimethylbutane-1,4-diamine] was “inactive”. As to `CN(C)CCNc1cc(/C=C/c2ccc(C(F)(F)F)cc2)nc2ccc(Cl)cc12.O=P(O)(O)O` [24s, (E)-N^1-(6-Chloro-2-(4-(trifluoromethyl)styryl)quinolin-4-yl)-N^2,N^2-dimethylethane-1,2-diamine Monophosphate Salt], the “mice cured (no parasites in blood smears / 100% reduction of parasitemia)” value in series [2] (100 mg/kg p.o. once daily for 4 days) was “no parasites were detected and 5/5”. For the same molecule, in series [2] (25 and 100 mg/kg p.o.), the body weight change entry is given as “no significant weight loss” and the “tolerability / signs of toxicity” value is listed as “well tolerated; also recorded: no apparent signs of toxicity”. Also, the “effect on malaria infection (bioluminescence day 7)” value (shortened to “effect on malaria infection”) in series [3] is “full protection and cure”. In the case of `CN(C)CCNc1cc(/C=C/c2ccc(F)cc2)nc2ccc(Cl)cc12.O=P(O)(O)O` [29s, (E)-N^1-(6-Chloro-2-(4-fluorostyryl)quinolin-4-yl)-N^2,N^2-dimethylethane-1,2-diamine Monophosphate Salt], in series [3], the “effect on malaria infection” value is “effectively cleared the parasites”.

Take `CN1CCN(CCNc2cc(/C=C/c3ccc(F)cc3)nc3ccc(Cl)cc23)CC1.O=P(O)(O)O` [86s, (E)-6-Chloro-2-(4-fluorostyryl)-N-(2-(4-methylpiperazin-1-yl)-ethyl)quinolin-4-amine Monophosphate Salt]: the “effect on malaria infection” value in series [3] is given as “ineffective”. For the molecule `CCN(CC)CCCC(C)Nc1ccnc2cc(Cl)ccc12` (stereo not drawn) [CQ, chloroquine, reference compound], in series [4], the “mean survival time (MSD)” value is reported as 24 days. The “inhibition of β-hematin formation” value in series [5] is listed as “strongly inhibited β-hematin formation”. In the case of `C[C@H]1[C@@H](O)O[C@@H]2O[C@@]3(C)CC[C@H]4[C@H](C)CC[C@@H]1[C@@]24OO3` [DHA, dihydroartemisinin, reference compound], in series [6], the “stage-specific action on cell cycle progression” value (“stage-specific action” for short) was “inhibition of all stages”. The same measure, in the same setting: the value for `O=C1C(O)=C([C@H]2CC[C@H](c3ccc(Cl)cc3)CC2)C(=O)c2ccccc21` [atovaquone, reference compound] was “no inhibition in late stages”.

`COc1ccc2nc(/C=C/c3ccccc3)cc(NCCN(C)C)c2c1` [compound 8, (E)-N^1-(6-Methoxy-2-styrylquinolin-4-yl)-N^2,N^2-dimethylethane-1,2-diaminei]: the “resistance index (RI)” value in series [1] was no less than 1.5.

Turning to `COc1ccc2nc(/C=C/c3ccc(OC)c(OC)c3)cc(NCCN(C)C)c2c1` [compound 13, (E)-N^1-(2-(3,4-Dimethoxystyryl)-6-methoxyquinolin-4-yl)-N^2,N^2-dimethylethane-1,2-diamine], in series [1], the “resistance index (RI)” value is no less than 1.5. On the same count and under the same terms, the value for `COc1ccc2nc(/C=C/c3cc(OC)c(OC)c(OC)c3)cc(NCCN(C)C)c2c1` [compound 14, (E)-N^1-(6-Methoxy-2-(3,4,5-trimethoxystyryl)quinolin-4-yl)-N^2,N^2-dimethylethane-1,2-diamine] was no less than 1.5. As for `COc1ccc(/C=C/c2cc(NCCN(C)C)c3cc(F)ccc3n2)cc1OC` [compound 20, (E)-N^1-(2-(3,4-Dimethoxystyryl)-6-fluoroquinolin-4-yl)-N^2,N^2-dimethylethane-1,2-diamine], the “fold improved activity compared to compound 13” value in [1] (Dd2) is given as “approximately 4.5 fold”. Take `CN(C)CCNc1cc(/C=C/c2ccc(C(F)(F)F)cc2)nc2ccc(Cl)cc12` [compound 24, (E)-N^1-(6-Chloro-2-(4-(trifluoromethyl)styryl)quinolin-4-yl)-N^2,N^2-dimethylethane-1,2-diamine]: in [6], the “stage-specific action” value was “blocked when the compound was added at 6, 18, and 30 HPI”. The “effect on cell cycle when added at 42 HPI” value in series [6] (5 × EC50, added at 42 HPI) is “did not affect the schizont maturation or the reinvasion of new merozoites”. Also, the “ultrastructural effect (TEM)” value in series [7] is recorded as “appearance of membrane-bound structures within the parasite DV”. Further, the “selectivity index (SI)” value in series [8] was greater than 1000. Also, the “metabolites / metabolic pathway identified by LC–MS” value in [9] was “N-demethylation was the primary metabolic route”. Besides, the “inhibition of β-hematin formation” value in series [5] was “very low activity against β-hematin crystal formation; also recorded: weaker inhibitory activity toward β-hematin formation as compared with CQ”. Turning to `CN(C)CCNc1cc(/C=C/c2ccc(N(C)C)cc2)nc2ccc(Cl)cc12` [compound 28, (E)-N^1-(6-Chloro-2-(4-(dimethylamino)styryl)quinolin-4-yl)-N^2,N^2-dimethylethane-1,2-diamine], in series [1], the “resistance index (RI)” value was 1.3. Turning to `CN(C)CCNc1cc(/C=C/c2ccc(F)cc2)nc2ccc(Cl)cc12` [compound 29, (E)-N^1-(6-Chloro-2-(4-fluorostyryl)quinolin-4-yl)-N^2,N^2-dimethylethane-1,2-diamine], the “stage-specific action” value in [6] is recorded as “stage-specific action at the late trophozoite phase”. Moreover, the “selectivity index (SI)” value in [8] is on record as greater than 1000. Also, the “metabolites / metabolic pathway identified by LC–MS” value in [9] is “monodemethylated (29-M1), bi-demethylated (29-M2), and oxidized products (29-M3)”. Also, in [5], the “inhibition of β-hematin formation” value is “showed inhibitory activity toward β-hematin formation in a concentration-dependent manner”. `COc1ccc2nc(/C=C/c3ccncc3)cc(NCCN(C)C)c2c1` [compound 41, (E)-N^1-(6-Methoxy-2-(2-(pyridin-4-yl)vinyl)quinolin-4-yl)-N^2,N^2-dimethylethane-1,2-diamine]: the “fold activity difference versus 2-pyridyl isomer 42” value in series [1] (Dd2) is given as “up to 30 fold”. As for `CN(C)CCNc1cc(/C=C/c2ccncc2)nc2ccc(Cl)cc12` [compound 50, (E)-N^1-(6-Chloro-2-(2-(pyridin-4-yl)vinyl)quinolin-4-yl)-N^2,N^2-dimethylethane-1,2-diamine], the “resistance index (RI)” value in series [1] is recorded as less than 1. Consider `CN1CCN(CCNc2cc(/C=C/c3ccc(F)cc3)nc3ccc(Cl)cc23)CC1` [compound 86, (E)-6-Chloro-2-(4-fluorostyryl)-N-(2-(4-methylpiperazin-1-yl)-ethyl)quinolin-4-amine], for which the “stage-specific action” value in series [6] is “stage-specific action at the late trophozoite phase”. The “fold more potent than analogue 95” value in series [1] (Dd2) was roughly 2.5 fold. Moreover, in series [9], the “metabolites / metabolic pathway identified by LC–MS” value is “Demethylated (86-M1) and oxidized products (86-M2)”. For the same molecule, the “inhibition of β-hematin formation” value in series [5] is recorded as “showed inhibitory activity toward β-hematin formation in a concentration-dependent manner”. As to `Fc1ccc(/C=C/c2cc(NCCCCN3CCOCC3)c3cc(Cl)ccc3n2)cc1` [compound 92, (E)-6-Chloro-2-(4-fluorostyryl)-N-(4-morpholinobutyl)quinolin-4-amine], the “fold improved potency compared with counterpart 81” value in [1] (Dd2) was roughly 2 fold. For the same molecule, the “fold increase in inhibitory activity relative to compound 81” value in series [10] is on record as roughly 6 fold. In addition, the “fold increase in cytotoxicity relative to compound 81” value in series [8] (HepG2) is 4.8 fold. Also, the “selectivity index (SI)” value in [8] is greater than 1000. The “metabolites / metabolic pathway identified by LC–MS” value in series [9] is given as “breakage of the morpholine ring”.

With `Clc1ccc2nc(/C=C/c3ccncc3)cc(NCCCCN3CCOCC3)c2c1` [compound 93, (E)-6-Chloro-N-(4-morpholinobutyl)-2-(2-(pyridin-4-yl)vinyl)-quinolin-4-amine], the “fold improved potency compared with counterpart 82” value in [1] (Dd2) is roughly 13 fold. In addition, the EC50 in series [1] was no more than 15 nM. Besides, in series [9], the “metabolites / metabolic pathway identified by LC–MS” value is “breakage of the morpholine ring”. Regarding `FC(F)(F)c1ccc(/C=C/c2cc(NCCCCN3CCOCC3)c3cc(Cl)ccc3n2)cc1` [compound 98, (E)-6-Chloro-N-(4-morpholinobutyl)-2-(4-(trifluoromethyl)-Styryl)quinolin-4-amine], the “metabolites / metabolic pathway identified by LC–MS” value in series [9] is “breakage of the morpholine ring”. As for `Fc1ccc(/C=C/c2cc(NCCCCN3CCOCC3)c3cc(Cl)ccc3n2)c(F)c1` [compound 104, (E)-6-Chloro-2-(2,4-difluorostyryl)-N-(4-morpholinobutyl)-quinolin-4-amine], the “fold more active than 103” value in series [1] (Dd2) was roughly 2.5 fold. On to `Fc1ccc(/C=C/c2cc(NCCCCN3CCOCC3)c3cc(Cl)ccc3n2)cc1F` [compound 105, (E)-6-Chloro-2-(3,4-difluorostyryl)-N-(4-morpholinobutyl)-quinolin-4-amine], for which the “fold more active than 103” value in series [1] (Dd2) is given as roughly 7 fold. Moreover, the “metabolites / metabolic pathway identified by LC–MS” value in series [9] was “breakage of the morpholine ring”. Turning to `Fc1cnccc1/C=C/c1cc(NCCCCN2CCOCC2)c2cc(Cl)ccc2n1` [compound 109, (E)-6-Chloro-2-(2-(3-fluoropyridin-4-yl)vinyl)-N-(4-morpholinobutyl)quinolin-4-amine], the “fold less active than counterpart 93” value in [1] (Dd2) is given as roughly 7.5 fold. Take “(E)-4-(6-Chloro-2-(4-isocyanostyryl)quinolin-4-yl)morpholine [compound 64]”: the 50% effective concentration (EC50) in series [1] is greater than 1000 nM.

The term EC50 denotes the concentration that produces a half-maximal response.
